Reference: the supplement of paper PMC10307832

What was measured:
Assay in all cases: relative viability (nuclei count vs DMSO), 5 days (fraction); higher = more cells survive
Tipifarnib + OSI-027 = compound: Cn1cncc1[C@@](N)(c1ccc(Cl)cc1)c1ccc2c(c1)c(-c1cccc(Cl)c1)cc(=O)n2C [Tipifarnib] + COc1cccc2cc(-c3nc([C@H]4CC[C@H](C(=O)O)CC4)n4ncnc(N)c34)[nH]c12 [OSI-027] (partner 0.5 µM)
How it was run: (§1)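 Relative viability was taken as the ratio of nuclei in treated wells to nuclei in vehicle wells. Lung cancer cell lines in 1536-well plates received compounds by pin tool one day after seeding, either one drug alone or a fixed anchor-drug dose plus five library-drug doses (not always all listed) in √10 steps. Nuclei were counted on 4× images after 5 days of treatment, and values are medians of duplicate plates.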

Tipifarnib + Lapatinib = compound: Cn1cncc1[C@@](N)(c1ccc(Cl)cc1)c1ccc2c(c1)c(-c1cccc(Cl)c1)cc(=O)n2C [Tipifarnib] + CS(=O)(=O)CCNCc1ccc(-c2ccc3ncnc(Nc4ccc(OCc5cccc(F)c5)c(Cl)c4)c3c2)o1 [Lapatinib] (partner 2 µM)
How it was run: as §1

Tipifarnib + Linsitinib = compound: Cn1cncc1[C@@](N)(c1ccc(Cl)cc1)c1ccc2c(c1)c(-c1cccc(Cl)c1)cc(=O)n2C [Tipifarnib] + C[C@]1(O)C[C@@H](c2nc(-c3ccc4ccc(-c5ccccc5)nc4c3)c3c(N)nccn32)C1 [Linsitinib] (partner 1 µM)
How it was run: as §1

Tipifarnib + Alpelisib = compound: Cn1cncc1[C@@](N)(c1ccc(Cl)cc1)c1ccc2c(c1)c(-c1cccc(Cl)c1)cc(=O)n2C [Tipifarnib] + Cc1nc(NC(=O)N2CCC[C@H]2C(N)=O)sc1-c1ccnc(C(C)(C)C(F)(F)F)c1 [Alpelisib] (partner 2 µM)
How it was run: as §1

Cell Line	relative viability (Tipifarnib + OSI-027; first compound 0.01 µM)	relative viability (Tipifarnib + OSI-027; first compound 0.03162 µM)	relative viability (Tipifarnib + OSI-027; first compound 0.1 µM)	relative viability (Tipifarnib + OSI-027; first compound 0.3162 µM)	relative viability (Tipifarnib + OSI-027; first compound 1 µM)	relative viability (Tipifarnib + Lapatinib; first compound 0.01 µM)	relative viability (Tipifarnib + Lapatinib; first compound 0.03162 µM)	relative viability (Tipifarnib + Lapatinib; first compound 0.1 µM)	relative viability (Tipifarnib + Lapatinib; first compound 0.3162 µM)	relative viability (Tipifarnib + Lapatinib; first compound 1 µM)	relative viability (Tipifarnib + Linsitinib; first compound 0.01 µM)	relative viability (Tipifarnib + Linsitinib; first compound 0.03162 µM)	relative viability (Tipifarnib + Linsitinib; first compound 0.1 µM)	relative viability (Tipifarnib + Linsitinib; first compound 0.3162 µM)	relative viability (Tipifarnib + Linsitinib; first compound 1 µM)	relative viability (Tipifarnib + Alpelisib; first compound 0.01 µM)	relative viability (Tipifarnib + Alpelisib; first compound 0.03162 µM)	relative viability (Tipifarnib + Alpelisib; first compound 0.1 µM)	relative viability (Tipifarnib + Alpelisib; first compound 0.3162 µM)	relative viability (Tipifarnib + Alpelisib; first compound 1 µM)
HCC-44	0.736	0.423	0.383	0.329	0.289	0.876	0.898	0.853	0.767	0.494	0.563	0.615	0.557	0.493	0.521	0.742	0.747	0.62	0.615	0.58
HCC-78	0.325	0.376	0.354	0.373	0.308	0.661	0.633	0.514	0.54	0.37	0.607	0.565	0.562	0.354	0.361	0.41	0.314	0.317	0.271	0.292
HCC-366	1.01	0.778	0.265	0.18	0.0734	0.981	0.822	0.345	0.235	0.039	0.619	0.487	0.343	0.206	0.0767	0.559	0.47	0.272	0.159	0.0543
HCC-827	0.901	0.809	0.687	0.435	0.388	0.184	0.208	0.152	0.186	0.172	0.828	0.918	0.805	0.639	0.6	1.04	1.03	0.767	0.626	0.667
HOP-62	0.639	0.382	0.33	0.263	0.317	0.841	0.301	0.454	0.244	0.265	0.916	0.64	0.38	0.304	0.301	1.31	0.824	0.377	0.281	0.325
IA-LM	–	–	–	–	–	0.295	0.192	0.215	0.144	0.156	0.329	0.285	0.332	0.288	0.189	0.362	0.289	0.309	0.213	0.214
LC-2-ad	0.765	0.755	0.522	0.499	0.438	0.843	0.592	0.367	0.436	0.178	0.756	0.705	0.487	0.448	0.369	0.829	0.54	0.375	0.411	0.321
LCLC-97TM1	0.402	0.409	0.358	0.286	0.22	0.998	1.02	0.554	0.504	0.237	0.204	0.169	0.174	0.192	0.169	0.218	0.181	0.2	0.17	0.173
LCLC-103H	0.383	0.445	0.372	0.363	0.31	–	–	–	–	–	1.04	1.02	1.02	0.802	0.913	0.949	0.964	0.924	0.792	0.768
LK-2	0.183	0.193	0.195	0.165	0.164	0.824	0.801	0.8	0.678	0.629	0.499	0.506	0.399	0.379	0.487	1.21	1.06	0.827	0.544	0.639
LOU-NH91	0.698	0.589	0.5	0.485	0.467	0.794	0.658	0.675	0.669	0.499	0.937	0.819	0.838	0.736	0.691	0.706	0.702	0.644	0.545	0.583
LU99A	0.242	0.229	0.224	0.238	0.236	0.663	0.583	0.461	0.448	0.275	0.563	0.477	0.299	0.257	0.272	0.442	0.36	0.297	0.261	0.238
NCI-H441	0.791	0.255	0.393	0.326	0.272	–	–	–	–	–	0.67	0.455	0.413	0.402	0.33	0.712	1.06	0.54	0.307	0.379
NCI-H522	0.66	0.709	0.725	0.584	0.615	–	–	–	–	–	–	–	–	–	–	–	–	–	–	–
NCI-H1299	–	–	–	–	–	0.998	0.9	0.915	0.845	0.836	1.06	0.886	0.906	0.803	0.635	1.04	1.04	0.971	0.973	0.941
NCI-H1648	0.268	0.258	0.271	0.307	0.259	–	–	–	–	–	–	–	–	–	–	–	–	–	–	–
NCI-H1650	0.407	0.17	0.305	0.26	0.196	0.687	0.643	0.486	0.376	0.211	–	–	–	–	–	–	–	–	–	–
NCI-H1703	–	–	–	–	–	0.78	0.706	0.253	0.319	0.417	0.84	0.323	0.145	0.274	0.373	0.267	0.275	0.147	0.272	0.21
NCI-H2170	0.668	0.678	0.583	0.55	0.353	0.245	0.271	0.272	0.265	0.248	–	–	–	–	–	0.839	0.818	0.74	0.671	0.699
NCI-H2342	0.634	0.542	0.631	0.564	0.448	–	–	–	–	–	–	–	–	–	–	–	–	–	–	–
SW 900	0.309	0.1	0.27	0.189	0.18	–	–	–	–	–	–	–	–	–	–	–	–	–	–	–
